≈ marks a conversion by molar mass, not a printed value. Where two headings read alike, the source gives them in different places.
How the values were obtained:
K. pneumoniae ATCC 13883 = experiment: Antibacterial screening, broth microdilution (MIC/MBC); format: cell-based, Klebsiella pneumoniae; conditions: for MIC: K. pneumoniae ATCC 13883, MHB, 24 h, 35 °C
Method: (§1) The antimicrobial activities of a series of compounds 1–5 were tested through the utilization of seven reference species, encompassing both Gram-positive (Staphylococcus aureus ATCC 29213, Staphylococcus epidermidis ATCC 12228, Micrococcus luteus ATCC 10240) and Gram-negative (Escherichia coli ATCC 25922, Klebsiella pneumoniae ATCC 13883, Proteus mirabilis ATCC 12453, Acinetobacter baumannii ATCC 19606) bacteria as model microorganisms. For this purpose, microbial suspensions were prepared in sterile saline (0.85% NaCl) with an optical density of 0.5 McFarland standard, yielding a concentration of 150 × 10^6 CFU/mL (CFU, colony-forming units). All of the stock solutions of the tested compounds were dissolved in DMSO. Amoxicillin (Glentham Life Sciences Ltd., Corsham, UK) was used as a positive control.
(§2) The MIC values of the tested compounds were determined by serial twofold dilutions of 1–5 in Mueller Hinton Broth (MHB, Biomaxima, Lublin, Poland). The range of final 1–5 concentrations used was from 0.49 up to 1000 μg/mL, and for amoxicillin from 0.12 up to 250 μg/mL in the 96-well microtiter plates (Medlab, Raszyn, Poland), starting with 98 μL MHB and 2 μL bacterial inoculum added to each well. Positive controls consisted of 100 μL MHB in each well with the tested compounds at the same concentration range. The negative controls consisted of 100 μL of MHB only. Each set of tests and controls was established with three replicates. The microtiter plates were then subjected to an incubation period of 24 h at a temperature of 35 ± 2 °C. After incubation, the optical density of the microbial growth was measured at a wavelength of 600 nm using a microplate reader, the Biotek Elx800 (BioTek Instruments, Inc., Winooski, VT, USA). The MIC value was defined as the lowest concentration of the tested compound at which there was no visible growth of the tested microorganisms. The determination of the MIC values was achieved by employing the broth microdilution method, in accordance with the recommendations of the European Committee on Antimicrobial Susceptibility Testing (EUCAST). […] Then, the MHA plates were incubated overnight at 35 ± 2 °C. […] The MIC and MBC values were reported in μg/mL, according to the EUCAST reference.

M. luteus ATCC 10240 = experiment: as above; format: cell-based, Micrococcus luteus; conditions: for MIC: ATCC10240, 24 h, M. luteus ATCC 10240, MHB, 24 h, 35 °C; for MBC: M. luteus ATCC 10240
Method: as §1, §2

[1] = Cytotoxicity, microculture tetrazolium (MTT) test, VERO; format: cell-based; conditions: African green monkey, ATCC CCL-81; VERO (normal kidney cells), 24 h incubation, MTT; ± SD
Method: (§3) The cytotoxicity of biaryl monophosphines was tested in vitro in normal (VERO) and cancer-derived (H1HeLa) cells after 24 h of incubation using a microculture tetrazolium test. Table 2 presents the CC50 (concentrations decreasing the cellular viability by 50%) values calculated from dose–response cytotoxicity curves (Figure 4).
(§4) Cytotoxicity was evaluated using a microculture tetrazolium test as previously described, and details can be found in the Supplementary Materials. The cell lines used in the presented study were acquired from the American Type Culture Collection (ATCC); the one used for cytotoxicity testing included non-cancerous VERO (kidney; ATCC CCL-81) cells and cancer-originating H1HeLa (cervical adenocarcinoma; ATCC CRL-1958) cells. VERO cells were cultured in Dulbecco’s Modified Eagle’s Medium (DMEM; Corning, Tewksbury, MA, USA), while Eagle’s Minimum Essential Medium (MEM; Corning) was used for H1HeLa. Antibiotics (penicillin–streptomycin solution, Corning) and fetal bovine serum (FBS, Corning) were added to cell media. Cells were incubated in a 5% CO2 atmosphere at 37 °C (CO2 incubator, Panasonic Healthcare Co., Tokyo, Japan). Briefly, the monolayers of VERO or H1HeLa cells in 96-well plates (Falcon, Corning) were treated with serial dilutions of selected compounds for 24 h. After this, the medium was removed, the plates were washed with phosphate buffered saline (PBS; Corning), a 10% solution of (3-(4,5-dimethylthiazol-2-yl)-2,5-diphenyltetrazolium bromide (MTT; Sigma-Aldrich, St. Louis, MO, USA) (5 mg/mL) in FBS-free cell media was added, and the incubation continued for the next 4 h. Subsequently, the precipitated formazan crystals were dissolved, and after overnight incubation at 37 °C, the Synergy H1 Multi-Mode Microplate Reader (BioTek Instruments, Inc., Winooski, VT, USA) with Gen5 software (ver. 3.09.07; BioTek Instruments, Inc.) was used for absorbance acquisition (540 and 620 nm). Data was exported to GraphPad Prism (ver. 10) to calculate the CC50 values (50% cytotoxic concentration) from dose–response curves.
(§5) Aromaticity Tuning in Biaryl Monophosphines and Their Derivatives […]
(§6) Cell line maintenance and in vitro experiments
(§7) The cytotoxicity of selected biaryl monophosphines was evaluated in vitro towards normal VERO (ATCC, CCL-81) cells and cancer-derived cell line H1HeLa (cervical adenocarcinoma; ATCC (American Type Culture Collection) CRL-1958) using 3-(4,5-dimethylthiazol-2-yl)-2,5-diphenylte-trazolium bromide (MTT) based protocol.
(§8) Media used for in vitro culturing included Dulbecco's Modified Eagle's Medium (DMEM, Corning, Tewksbury, MA, USA) used for VERO cells and Modified Eagle Medium (MEM, Corning) used for H1HeLa. Cell media used in the experiments were supplemented with antibiotics (Penicil-lin-Streptomycin Solution, Corning) and fetal bovine serum (FBS, Corning) – 10% (cell passaging) and 2% (cell maintenance and experiments). Phosphate-buffered saline (PBS) and trypsin were bought from Corning, whereas MTT (3-(4,5-dimethylthiazol-2-yl)-2,5-diphenyltetrazolium bromide) from Sigma (Sigma-Aldrich, St. Louis, MO, USA). SDS was purchased from PanReac Applichem (Darmstadt, Germany). Incubation was carried out in a 5% CO2 atmosphere at 37°C (CO2 incubator, Panasonic Healthcare Co., Tokyo, Japan).
(§9) Concentrations of cells for passaging were as follows: VERO – 1.5*10^5 cells/mL, H1HeLa – 2*10^5 cells/mL. Routine observations of cell cultures and experiments were carried out using an in-verted microscope (CKX41, Olympus Corporation, Tokyo, Japan) equipped with a ca mera (Moti-cam 3+, Motic, Hong Kong), and the results were recorded (Motic Images Plus 2.0, Motic).
(§10) Stock solutions of biaryl monophosphines were prepared by dissolving the samples in cell culture grade DMSO (PanReac Applichem).
(§11) Evaluation of cytotoxicity
(§12) Cytotoxicity was tested using an MTT-based protocol. The cells were passaged into 96-well plates (Falcon, TC-treated, Corning) and, after overnight incubation, treated with serial dilutions of […]

[2] = Cytotoxicity, microculture tetrazolium (MTT) test, H1HeLa; format: cell-based; conditions: human, H1HeLa cells (cervical adenocarcinoma, ATCC CRL-1958); H1HeLa (cervical adenocarcinoma), 24 h incubation, MTT; ± SD
Method: as §3, §4, §5, §6, §7, §8, §9, §10, §11, §12

[3] = system: S. epidermidis ATCC 12228; experiment: Antibacterial screening, broth microdilution (MIC/MBC); format: cell-based, Staphylococcus epidermidis; conditions: for MIC: S. epidermidis ATCC 12228, MHB, 24 h, 35 °C
Method: as §1, §2

E. coli ATCC 25922 = experiment: as above; format: cell-based, Escherichia coli; conditions: for MIC: E. coli ATCC 25922, MHB, 24 h, 35 °C
Method: as §1, §2

S. aureus ATCC 29213 = experiment: as above; format: cell-based, Staphylococcus aureus; conditions: for MIC: S. aureus ATCC 29213, MHB, 24 h, 35 °C; for MBC: S. aureus ATCC 29213
Method: as §1, §2

A. baumannii ATCC 19606 = experiment: as above; format: cell-based, Acinetobacter baumannii; conditions: for MIC: A. baumannii ATCC 19606, MHB, 24 h, 35 °C
Method: as §1, §2

P. mirabilis ATCC 12453 = experiment: as above; format: cell-based, Proteus mirabilis; conditions: for MIC: P. mirabilis ATCC 12453, MHB, 24 h, 35 °C
Method: as §1, §2

VERO cells = experiment: Cytotoxicity, microculture tetrazolium (MTT) test, VERO; format: cell-based
Method: as §3, §4, §5, §6, §7, §8, §9, §10, §11, §12

H1HeLa cells = experiment: Cytotoxicity, microculture tetrazolium (MTT) test, H1HeLa; format: cell-based
Method: as §3, §4, §5, §6, §7, §8, §9, §10, §11, §12

[4] = Klebsiella pneumoniae, ATCC13883, read-out: MIC
[5] = Micrococcus luteus, ATCC10240, read-out: MBC
[6] = Staphylococcus epidermidis, ATCC12228, read-out: MIC
[7] = Staphylococcus epidermidis, ATCC12228, S. epidermidis ATCC 12228, read-out: MBC
[8] = Escherichia coli, ATCC25922, read-out: MIC
[9] = Staphylococcus aureus, ATCC29213, read-out: MIC
[10] = Staphylococcus aureus, ATCC29213, read-out: MBC
[11] = Acinetobacter baumannii, ATCC19606, read-out: MIC
[12] = Proteus mirabilis, ATCC12453, read-out: MIC

For COc1ccccc1-c1c(P(=O)(C2CCCCC2)C2CCCCC2)c(O)c2ccccc2c1O [Compound 4, 2-(Dicyclohexylphosphoryl)-3-(2-methoxyphenyl)naphthalene-1,4-diol], the MIC (K. pneumoniae ATCC 13883; [4]) was 500 µg/mL (≈ 1040 µM), the MIC (M. luteus ATCC 10240; Micrococcus luteus) was 15.6 to 31.2 µg/mL (≈ 32.7 to 65.3 µM) and the MBC (M. luteus ATCC 10240; [5]) was > 1000 µg/mL. For the same compound, the CC50 at 24 h [1] was 4.7 ± 0.41 µg/mL, the CC50 at 24 h [2] was 5.53 ± 0.12 µg/mL and the MIC [3, 6] was 500 µg/mL (≈ 1040 µM). The MBC [3, 7] was > 1000 µg/mL, the MIC (E. coli ATCC 25922; [8]) was 500 to 1000 µg/mL (≈ 1040 to 2090 µM) and the MIC (S. aureus ATCC 29213; [9]) was 250 µg/mL (≈ 522 µM). The MBC (S. aureus ATCC 29213; [10]) was > 1000 µg/mL, the MIC (A. baumannii ATCC 19606; [11]) was 1000 µg/mL (≈ 2090 µM) and the MIC (P. mirabilis ATCC 12453; [12]) was 1000 µg/mL (≈ 2090 µM).

Work on CC1(C)S[C@@H]2[C@H](NC(=O)[C@H](N)c3ccc(O)cc3)C(=O)N2[C@H]1C(=O)O [Amox, Amoxicillin, reference compound] yielded an MBC (K. pneumoniae ATCC 13883; Klebsiella pneumoniae, ATCC13883, K. pneumoniae ATCC 13883) of 250 µg/mL (≈ 684 µM), an MIC (K. pneumoniae ATCC 13883; [4]) of 250 µg/mL (≈ 684 µM) and an MIC (M. luteus ATCC 10240; Micrococcus luteus) of 31.2 µg/mL (≈ 85.5 µM). It also gave an MBC (M. luteus ATCC 10240; [5]) of 31.2 µg/mL (≈ 85.5 µM), an MIC [3, 6] of 31.2 µg/mL (≈ 85.5 µM) and an MBC [3, 7] of 31.2 µg/mL (≈ 85.5 µM). It also gave an MBC (E. coli ATCC 25922; Escherichia coli, ATCC25922, E. coli ATCC 25922) of 7.81 µg/mL (≈ 21.4 µM), an MIC (E. coli ATCC 25922; [8]) of 3.91 µg/mL (≈ 10.7 µM) and an MIC (S. aureus ATCC 29213; [9]) of 0.98 µg/mL (≈ 2.68 µM). The MBC (S. aureus ATCC 29213; [10]) was 0.98 µg/mL (≈ 2.68 µM), the MBC (A. baumannii ATCC 19606; Acinetobacter baumannii, ATCC19606, A. baumannii ATCC 19606) was 125 µg/mL (≈ 342 µM) and the MIC (A. baumannii ATCC 19606; [11]) was 125 µg/mL (≈ 342 µM). The MBC (P. mirabilis ATCC 12453; Proteus mirabilis, ATCC12453, P. mirabilis ATCC 12453) was 0.49 µg/mL (≈ 1.34 µM) and the MIC (P. mirabilis ATCC 12453; [12]) was 0.49 µg/mL (≈ 1.34 µM).

With “Dicyclohexyl[1,4-dimethoxy-3-(2,4,6-trimethoxyphenyl)naphthalen-2-yl]phosphane [Compound 5]” the MIC (K. pneumoniae ATCC 13883) was >1000 µg/mL, the MBC (M. luteus ATCC 10240) was 125 µg/mL and the CC50 (VERO cells) was 89.88 ± 4.11 µg/mL. For the same compound, the CC50 (H1HeLa cells) was 200.85 ± 13.08 µg/mL, the MBC ([3]; S. epidermidis ATCC 12228) was 1000 µg/mL and the “type of activity (bactericidal or bacteriostatic)” value ([3]; S. epidermidis ATCC 12228) was “bactericidal”. The MIC [3] was 31.25 to 62.5 µg/mL, the MIC (E. coli ATCC 25922) was >1000 µg/mL and the MBC (S. aureus ATCC 29213) was >1000 µg/mL. For the same compound, the MIC (S. aureus ATCC 29213) was 125 to 250 µg/mL, the MIC (A. baumannii ATCC 19606) was 1000 µg/mL and the MIC (P. mirabilis ATCC 12453) was >1000 µg/mL.
